# Laboratory results reported in patent publication US10099993B2, “Metabotropic glutamate receptor positive allosteric modulators (PAMS) and uses thereof” (Sanford-Burnham Medical Research Institute, priority 2014, dated 2018).
# Columns and labels:
# mGlu3 = mGlu3 (Rattus norvegicus (Rat), UniProt P31422); test: mGlu3 GIRK thallium flux assay; conditions: for EC50: read-out: mGlu3 PAM EC50, test compound, then EC20 glutamate […] later in the presence of thallium; for EC50 / mGlu3 PAM Max: PAM mode, mean ± SEM; for Emax: read-out: mGlu3 PAM Max; for mGlu3 PAM Max: % Glutamate Max;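 for all read-outs here: kinetic fluorescence slope read shortly after thallium plus agonist addition, scaled between vehicle and maximal agonist control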
# Chain of mGlu3 (P31422 23-879): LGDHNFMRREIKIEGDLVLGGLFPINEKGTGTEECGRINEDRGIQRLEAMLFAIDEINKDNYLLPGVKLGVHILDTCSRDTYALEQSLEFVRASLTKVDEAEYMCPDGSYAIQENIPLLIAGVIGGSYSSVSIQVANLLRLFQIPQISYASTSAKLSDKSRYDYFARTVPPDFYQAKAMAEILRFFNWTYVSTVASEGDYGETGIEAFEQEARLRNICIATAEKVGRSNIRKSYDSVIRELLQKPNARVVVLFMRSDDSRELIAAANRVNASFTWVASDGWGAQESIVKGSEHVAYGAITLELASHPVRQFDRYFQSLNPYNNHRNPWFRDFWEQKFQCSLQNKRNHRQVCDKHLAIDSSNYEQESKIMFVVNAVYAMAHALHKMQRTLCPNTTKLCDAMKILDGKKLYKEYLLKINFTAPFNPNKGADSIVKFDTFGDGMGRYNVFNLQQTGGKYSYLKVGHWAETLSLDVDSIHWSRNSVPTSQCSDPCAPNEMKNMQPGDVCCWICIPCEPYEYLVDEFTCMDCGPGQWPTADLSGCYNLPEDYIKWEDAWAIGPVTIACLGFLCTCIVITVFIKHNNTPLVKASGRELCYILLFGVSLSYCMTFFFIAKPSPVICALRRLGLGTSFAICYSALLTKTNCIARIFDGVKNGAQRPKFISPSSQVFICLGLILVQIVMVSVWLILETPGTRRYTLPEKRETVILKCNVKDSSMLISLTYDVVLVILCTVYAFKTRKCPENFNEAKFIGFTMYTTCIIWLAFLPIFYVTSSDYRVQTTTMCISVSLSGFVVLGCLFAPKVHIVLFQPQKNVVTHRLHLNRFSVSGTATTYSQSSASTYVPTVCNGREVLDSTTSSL
# mGlu2 = mGlu2 (Rattus norvegicus (Rat), UniProt P31421); test: mGlu2 GIRK thallium flux assay; conditions: for EC50: read-out: mGlu2 PAM EC50, test compound, then EC20 glutamate […] later in the presence of thallium; for EC50 / mGlu2 PAM Max: PAM mode, mean ± SEM, at least three experiments; for Emax: read-out: mGlu2 PAM Max; for mGlu2 PAM Max: % Glutamate Max;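 for all read-outs here: Cell-based assay, rate of fluorescence rise right after thallium plus agonist addition read on a kinetic imaging plate reader, normalized to vehicle and maximal agonist control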
# Chain of mGlu2 (P31421 19-872): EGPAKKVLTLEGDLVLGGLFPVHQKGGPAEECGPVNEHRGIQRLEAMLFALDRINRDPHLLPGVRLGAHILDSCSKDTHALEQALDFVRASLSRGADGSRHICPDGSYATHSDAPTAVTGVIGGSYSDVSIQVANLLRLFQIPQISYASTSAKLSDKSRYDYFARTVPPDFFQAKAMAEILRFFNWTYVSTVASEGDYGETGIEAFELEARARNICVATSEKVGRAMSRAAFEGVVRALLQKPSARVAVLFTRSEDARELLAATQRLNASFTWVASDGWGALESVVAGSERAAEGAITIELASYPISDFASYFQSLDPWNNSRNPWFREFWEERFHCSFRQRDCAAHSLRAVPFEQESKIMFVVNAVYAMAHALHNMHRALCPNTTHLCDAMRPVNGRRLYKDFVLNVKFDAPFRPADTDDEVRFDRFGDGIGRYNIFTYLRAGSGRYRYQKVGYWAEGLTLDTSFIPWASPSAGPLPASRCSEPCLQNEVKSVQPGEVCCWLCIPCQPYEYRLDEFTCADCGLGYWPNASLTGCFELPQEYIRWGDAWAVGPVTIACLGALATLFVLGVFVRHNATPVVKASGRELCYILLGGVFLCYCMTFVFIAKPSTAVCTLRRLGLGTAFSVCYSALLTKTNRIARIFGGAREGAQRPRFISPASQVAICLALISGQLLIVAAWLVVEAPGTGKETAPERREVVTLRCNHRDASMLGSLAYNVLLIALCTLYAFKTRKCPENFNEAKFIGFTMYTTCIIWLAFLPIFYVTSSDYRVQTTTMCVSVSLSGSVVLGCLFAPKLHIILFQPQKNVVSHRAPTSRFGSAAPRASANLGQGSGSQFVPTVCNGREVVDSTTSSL
SMILES,EC50 (mGlu3) [nM],Emax (mGlu3) [%],EC50 (mGlu2) [nM],Emax (mGlu2) [%],mGlu3 PAM Max (mGlu3) [%],mGlu2 PAM Max (mGlu2) [%]
"Cc1c(OCc2ccc(-c3cccc(C(=O)O)c3)o2)ccc(C(=O)CC(C)(C)C)c1O [compound 158, 3-(5-((4-(3,3-Dimethylbutanoyl)-3-hydroxy-2-methylphenoxy)methyl)furan-2-yl)benzoic acid]",421 ± 5,110 ± 3.9,328,106 ± 3.8,,
"Cc1c(OCc2cccc(-c3cccc(C(=O)O)c3)n2)ccc(C(=O)CC(C)(C)C)c1O [compound 159, 3-(6-((4-(3,3-Dimethylbutanoyl)-3-hydroxy-2-methylphenoxy)methyl)pyridin-2-yl)benzoic acid]",967 ± 8,115 ± 2.1,929 ± 12,104 ± 2.5,,
"Cc1c(OCc2ncc(-c3cccc(C(=O)O)c3)s2)ccc(C(=O)CC(C)(C)C)c1O [compound 161, 3-(2-((4-(3,3-Dimethylbutanoyl)-3-hydroxy-2-methylphenoxy)methyl)thiazol-5-yl)benzoic acid]",3180 ± 68,114 ± 3.9,1878 ± 17,98.2 ± 5.2,,
"Cc1c(OCc2cc(-c3cccc(C(=O)O)c3)cs2)ccc(C(=O)CC(C)(C)C)c1O [compound 162, 3-(5-((4-(3,3-Dimethylbutanoyl)-3-hydroxy-2-methylphenoxy)methyl)thiophen-3-yl)benzoic acid]",,106 ± 6.4,,102 ± 3.5,,
"Cc1c(OCc2cnc(-c3cccc(C(=O)O)c3)cn2)ccc(C(=O)CC(C)(C)C)c1O [compound 163, 3-(5-((4-(3,3-Dimethylbutanoyl)-3-hydroxy-2-methylphenoxy)methyl)pyrazin-2-yl)benzoic acid]",268 ± 5,113 ± 5.4,1450 ± 15,105 ± 1.6,,
"Cc1c(OCc2cccc(-c3cccc(S(=O)(=O)O)c3)c2)ccc(C(=O)CC(C)(C)C)c1O [compound 164, 3′-((4-(3,3-Dimethylbutanoyl)-3-hydroxy-2-methylphenoxy)methyl)-[1,1′-biphenyl]-3-sulfonic acid]",,103 ± 1.9,,101 ± 2.8,,
"Cc1c(OCc2nnc(-c3cccc(C(=O)O)c3)s2)ccc(C(=O)CC(C)(C)C)c1O [compound 165, 3-(5-((4-(3,3-Dimethylbutanoyl)-3-hydroxy-2-methylphenoxy)methyl)-1,3,4-thiadiazol-2-yl)benzoic acid]",1410 ± 34,95 ± 2.5,1658 ± 8,85.6 ± 1.3,,
Cc1c(OCc2cccc(-c3ccc(Cl)c(C(=O)O)c3)c2)ccc(C(=O)CC(C)C)c1O [compound 169],2990 ± 359,,278 ± 49,,76.1 ± 5.1,77.6 ± 1.8
Cc1c(OCc2cccc(-c3ccc(Cl)c(C(=O)O)c3)c2)ccc(C(=O)CC(C)C)c1C [compound 170],> 30000,,815 ± 50,,,70.2 ± 2.9
Cc1c(OCc2cccc(-c3ccc(Cl)c(C(=O)O)c3)c2)ccc(C(=O)CC2CCCC2)c1C [compound 171],> 30000,,> 30000,,10.7 ± 1.0,12.3 ± 1.2
Cc1c(OCc2cccc(-c3ccc(Cl)c(C(=O)O)c3)c2)ccc(C(=O)CC(C)C)c1O [compound 172],> 10000,,763 ± 40,,,73.7 ± 1.2
